Measured values from US6875760B2 (Novo Nordisk A/S, priority 1999, dated 2005).

molecular target: T1, human glucagon receptor (Homo sapiens, UniProt P47871); test: Glucagon Binding Assay (III); conditions: BHK cell membranes, WGA SPA beads, 125I-glucagon; read-out: Glu Bd Assay (III) IC50
T1 construct: expressed in transfected cells; host or cells: BHK (baby hamster kidney) cells
Outline: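 Membranes from BHK cells transfected with the human receptor, prepared at 4 °C, were used in a WGA-bead scintillation proximity binding format. Plates were shaken for 4 hours, left to settle 8–48 hours and then counted. Non-specific binding was defined with 500 nM glucagon.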

T1 sequence (P47871 26-477): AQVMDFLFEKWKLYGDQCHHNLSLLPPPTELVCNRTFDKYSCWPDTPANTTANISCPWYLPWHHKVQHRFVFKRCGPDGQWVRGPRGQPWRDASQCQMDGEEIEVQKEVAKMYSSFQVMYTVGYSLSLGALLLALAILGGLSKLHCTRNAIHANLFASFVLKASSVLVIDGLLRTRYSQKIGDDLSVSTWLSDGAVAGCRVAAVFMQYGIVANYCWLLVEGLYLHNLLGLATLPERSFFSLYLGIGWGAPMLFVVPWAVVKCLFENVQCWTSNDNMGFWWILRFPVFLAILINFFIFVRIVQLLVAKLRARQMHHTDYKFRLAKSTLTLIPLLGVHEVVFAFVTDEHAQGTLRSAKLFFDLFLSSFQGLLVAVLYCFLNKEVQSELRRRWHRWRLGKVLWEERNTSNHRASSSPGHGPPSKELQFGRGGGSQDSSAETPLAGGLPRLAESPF

Compound	IC50 [nM]
CC(C)(C)c1ccc(N(Cc2ccc(C(=O)NCCC(=O)O)cc2)C(=O)Oc2ccc(OC(F)(F)F)cc2)cc1 [Example 411, 3-(4-{[(4-tert-Butylphenyl)-(4-trifluoromethoxyphenoxycarbonyl)amino]methyl}benzoylamino)propionic acid]	704
CC(C)(C)C1CCC(N(Cc2ccc(C(=O)NCCC(=O)O)cc2)C(=O)NCCc2ccccc2)CC1 (stereo not shown) [Example 27, 3-{4-[1-(4-tert-Butylcyclohexyl)-3-phenethylureidomethyl]benzoylamino}propionic acid]	2000
O=C(Nc1nn[nH]n1)c1ccc(CN(C(=O)Nc2ccccc2OC(F)(F)F)c2ccc(C3CCCCC3)cc2)cc1 [Example 350, 4-[1-(4-Cyclohexylphenyl)-3-(2-trifluoromethoxyphenyl)ureidomethyl]-N-(2H-tetrazol-5-yl)benzamide]	271
CC(C)(C)C1CCC(N(Cc2ccc(C(=O)Nc3nn[nH]n3)cc2)C(=O)c2ccc(-c3ccccc3)cc2)CC1 (stereo not shown) [Example 487, Biphenyl-4-carboxylic acid (4-tert-butylcyclohexyl)-[4-(2H-tetrazol-5-ylcarbamoyl)benzyl]amide]	523
CCc1ccc(NC(=O)N(CCc2ccc(Cl)c(Cl)c2)Cc2ccc(C(=O)NCCC(=O)O)cc2)cc1 [Example 46, 3-{4-[1-[2-(3,4-Dichlorophenyl)ethyl)-3-(4-ethylphenyl)ureidomethyl]benzoylamino}propionic acid]	456
CC(C)c1ccc(NC(=O)N(Cc2ccc(C(=O)NCCC(=O)O)cc2)CC(C)c2ccccc2)cc1 (stereo not shown) [Example 50, 3-{4-[3-(4-Isopropylphenyl)-1-(2-phenylpropyl)ureidomethyl]benzoylamino}propionic acid]	564
CC1CCC(N(Cc2ccc(C(=O)NCCC(=O)O)cc2)C(=O)Nc2ccc(OCc3ccccc3)cc2)CC1 (stereo not shown) [Example 45, 3-{4-[3-(4-Benzyloxyphenyl)-1-(4-methylcyclohexyl)ureidomethyl]benzoylamino}propionic acid]	1190
O=C(O)CCNC(=O)c1ccc(CN(C(=O)Oc2cccc(OC(F)(F)F)c2)c2ccc(C3CCCCC3)cc2)cc1 [Example 421, 3-(4-{[(4-Cyclohexylphenyl)-(3-trifluoromethoxyphenoxycarbonyl)amino]methyl}benzoylamino)propionic acid]	528
O=C(Nc1nn[nH]n1)c1ccc(CN(CC(c2ccccc2)c2ccccc2)C(=O)c2cc(-c3ccc(Cl)cc3)cs2)cc1 [Example 566, 4-(4-Chlorophenyl)thiophene-2-carboxylic acid (2,2-diphenyl-ethyl)-[4-(2H-tetrazol-5-ylcarbamoyl)benzyl]amide]	855
CC(C)(C)C1CCC(N(Cc2ccc(C(=O)NCCC(=O)O)cc2)C(=O)Oc2ccc(-c3ccccc3)cc2)CC1 (stereo not shown) [Example 398, 3-(4-{[(Biphenyl-4-yloxycarbonyl)-(4-tert-butylcyclohexyl)amino]methyl}benzoylamino)propionic acid]	135
CC(C)(C)C1CCC(N(Cc2ccc(C(=O)Nc3nn[nH]n3)cc2)C(=O)CCC(=O)c2ccccc2)CC1 (stereo not shown) [Example 541, 4-({(4-tert-Butylcyclohexyl)-(4-oxo-4-phenylbutyryl)amino]methyl}-N-(2H-tetrazol-5-yl)benzamide]	805

Other lines, results leading:

IC50 [nM]	Compound
44	CC(C)(C)c1ccc(N(Cc2ccc(C(=O)Nc3nn[nH]n3)cc2)C(=O)Nc2cc(C(F)(F)F)cc(C(F)(F)F)c2)cc1 [Example 330, 4-[3-(3,5-Bis(trifluoromethyl)phenyl)-1-(4-tert-butylphenyl)ureidomethyl]-N-(2H-tetrazol-5-yl)benzamide]
25	O=C(Nc1nn[nH]n1)c1ccc(CN(C(=O)Nc2ccc(Cl)c(Cl)c2)c2ccc(C3CCCCC3)cc2)cc1 [Example 346, 4-[1-(4-Cyclohexylphenyl)-3-(3,4-dichlorophenyl)ureidomethyl]-N-(2H-tetrazol-5-yl)benzamide]
7	O=C(O)CCNC(=O)c1ccc(CN(C(=O)Nc2ccc3c(c2)C(=O)N(CC2CC2)C3=O)c2ccc(C3CCCCC3)cc2)cc1 [Example 642, 3-{4-[3-(N′-[Cyclopropylmethyl]phthalimid-4-yl)-1-(4-cyclohexylphenyl)ureidomethyl]benzoylamino}propionic acid]
21	O=C(O)CCNC(=O)c1ccc(CN(C(=O)NCc2ccccc2-c2ccccc2)[C@H]2CC[C@H](C3CCCCC3)CC2)cc1 [Example 391]
177	CCCC1CCC(N(Cc2ccc(C(=O)NCCC(=O)O)cc2)C(=O)Nc2ccc(OC(F)(F)F)cc2)CC1 (stereo not shown) [Example 75, 3-{4-[1-(4-Propylcyclohexyl)-3-(4-trifluoromethoxyphenyl)ureidomethyl]benzoylamino}propionic acid]
144	CC(C)Oc1ccc(C(=O)N(Cc2ccc(C(=O)Nc3nn[nH]n3)cc2)C2CCC(C(C)(C)C)CC2)cc1 (stereo not shown) [Example 513, 4-{[(4-tert-Butylcyclohexyl)-(4-isopropoxybenzoyl)amino]methyl}-N-(2H-tetrazol-5-yl)benzamide]
252	O=C(Nc1nn[nH]n1)c1ccc(CN(C(=O)Nc2cccc(S(=O)(=O)C3CCCC3)c2)c2ccc(C3CCCCC3)cc2)cc1 [Example 471]
30	CCN(c1ccccc1)S(=O)(=O)c1cccc(NC(=O)N(Cc2ccc(C(=O)NCCC(=O)O)cc2)c2ccc(C3CCCCC3)cc2)c1 [Example 265, 3-(4-{1-(4-Cyclohexylphenyl)-3-[3-(ethylphenylsulfamoyl)phenyl]ureidomethyl}benzoylamino)propionic acid]
72	CCS(=O)(=O)c1cccc(NC(=O)N(Cc2ccc(C(=O)Nc3nn[nH]n3)cc2)c2ccc(C3CCCCC3)cc2)c1 [Example 453, 4-[1-(4-Cyclohexylphenyl)-3-(3-ethylsulfonylphenyl)ureidomethyl]-N-(2H-tetrazol-5-yl)benzamide]
220	O=C(O)CCNC(=O)c1ccc(CN(NC(=O)c2ccc(OC(F)(F)F)cc2)C2C[C@@H]3C[C@H]2C2CCCC23)cc1 (stereo partly shown) [Example 425, 3-{4-[N-(Octahydro-4,7-methanoinden-5-yl)-N′-(4-trifluoromethoxybenzoyl)hydrazinomethyl]benzoylamino}propionic acid]
61	CC(C)(C)C1CCC(N(Cc2ccc(C(=O)NCCC(=O)O)cc2)NC(=O)c2ccc(OC(F)(F)F)cc2)CC1 (stereo not shown) [Example 424, 3-{4-[N-(4-tert-Butylcyclohexyl)-N′-(4-trifluoromethoxybenzoyl)hydrazinomethyl]benzoylamino}propionic acid]
50	O=C(Nc1nn[nH]n1)c1ccc(CN(C(=O)Nc2ccc(OC(F)(F)F)cc2)c2ccc(C3=CCCCC3)cc2)cc1 [Example 307, 4-[1-(4-Cyclohex-1-enylphenyl)-3-(4-trifluoromethoxyphenyl)ureidomethyl]-N-(2H-tetrazol-5-yl)benzamide]
105	CC(C)(C)c1ccc(N(Cc2ccc(C(=O)Nc3nn[nH]n3)cc2)C(=O)Nc2nc3ccc(OC(F)(F)F)cc3s2)cc1 [Example 615, 4-[1-(4-tert-Butylphenyl)-3-(6-trifluoromethoxy-benzothiazol-2-yl)ureidomethyl]-N-(2H-tetra-5-yl)benzamide]

same assay, conditions: Glu Bd Assay (III) IC50 (nM), BHK cell membranes, WGA SPA beads, 125I-glucagon

Compound	IC50 [nM]
CC(C)(C)[C@H]1CC[C@H](N(Cc2ccc(C(=O)NCCC(=O)O)cc2)C(=O)Nc2cc(C(F)(F)F)cc(C(F)(F)F)c2)CC1 [Example 237, 3-{4-[3-(3,5-Bis-trifluoromethylphenyl)-1-(trans-4-tert-butylcyclohexyl)ureidomethyl]benzoylamino}propionic acid]	56
